The values below come from US10723707B2, “Heterocyclic substituted 2-amino quinazoline derivatives for the treatment of viral infections” (JANSSEN SCIENCES IRELAND UNLIMITED COMPANY, priority 2012, dated 2020).

Format in all cases: cell-based
One assay concerns the target T1, human TLR8 (Homo sapiens, UniProt Q9NR97).
T1 construct: expressed in transfected cells; host or cells: HEK293
T1 sequence (Q9NR97 27-1041): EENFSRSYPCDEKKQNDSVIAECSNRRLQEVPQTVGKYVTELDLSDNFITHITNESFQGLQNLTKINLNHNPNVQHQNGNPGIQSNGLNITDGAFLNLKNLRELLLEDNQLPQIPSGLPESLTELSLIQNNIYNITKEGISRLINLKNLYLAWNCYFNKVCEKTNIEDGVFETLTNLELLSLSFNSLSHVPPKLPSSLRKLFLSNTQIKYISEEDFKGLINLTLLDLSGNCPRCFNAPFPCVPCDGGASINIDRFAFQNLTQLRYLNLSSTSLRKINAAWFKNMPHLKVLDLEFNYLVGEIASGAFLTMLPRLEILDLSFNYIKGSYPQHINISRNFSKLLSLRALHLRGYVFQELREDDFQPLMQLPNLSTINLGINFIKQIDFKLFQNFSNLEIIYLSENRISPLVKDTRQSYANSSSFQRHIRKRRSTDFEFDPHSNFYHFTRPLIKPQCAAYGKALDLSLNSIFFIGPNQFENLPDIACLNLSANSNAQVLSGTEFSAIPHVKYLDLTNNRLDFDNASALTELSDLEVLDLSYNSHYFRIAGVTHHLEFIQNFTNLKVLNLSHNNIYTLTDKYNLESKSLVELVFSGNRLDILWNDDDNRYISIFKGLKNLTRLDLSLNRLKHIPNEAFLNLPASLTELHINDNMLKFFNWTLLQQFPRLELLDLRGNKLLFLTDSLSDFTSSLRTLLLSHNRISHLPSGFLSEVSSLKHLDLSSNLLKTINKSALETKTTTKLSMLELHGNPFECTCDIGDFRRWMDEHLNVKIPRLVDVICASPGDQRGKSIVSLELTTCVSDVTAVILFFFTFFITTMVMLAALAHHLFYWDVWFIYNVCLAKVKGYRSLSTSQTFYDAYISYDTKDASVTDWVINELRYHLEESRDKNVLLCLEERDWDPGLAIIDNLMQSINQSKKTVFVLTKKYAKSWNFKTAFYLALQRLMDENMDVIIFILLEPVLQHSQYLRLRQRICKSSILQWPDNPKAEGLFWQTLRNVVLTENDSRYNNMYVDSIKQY
Put plainly: TLR8 cellular NFκB-luc reporter assay in transiently transfected HEK293 cells. To be noted: lowest effective concentration, 6 hours incubation. As to the method:
(§1) The ability of compounds to activate human TLR7 and/or TLR8 was assessed in a cellular reporter assay using HEK293 cells transiently transfected with a TLR7 or TLR8 expression vector and NFκB-luc reporter construct.
(§2) Briefly, HEK293 cells were grown in culture medium (DMEM supplemented with 10% FCS and 2 mM Glutamine). For transfection of cells in 15 cm dishes, cells were detached with Trypsin-EDTA, transfected with a mix of CMV-TLR7 or TLR8 plasmid (1700 ng), NFκB-luc plasmid (850 ng) and a transfection reagent and incubated for 48 h at 37° C. in a humidified 5% CO2 atmosphere. Transfected cells were then washed in PBS, detached with Trypsin-EDTA and resuspended in medium to a density of 1.25×10^5 cells/mL. Forty microliters of cells were then dispensed into each well in 384-well plates, where 200 nL of compound in 100% DMSO was already present. Following 6 hours incubation at 37° C., 5% CO2, the luciferase activity was determined by adding 15 μL of Steady Lite Plus substrate (Perkin Elmer) to each well and readout performed on a ViewLux ultraHTS microplate imager (Perkin Elmer). Dose response curves were generated from measurements performed in quadruplicates. Lowest effective concentrations (LEC) values, defined as the concentration that induces an effect which is at least two fold above the standard deviation of the assay, were determined for each compound.
A general note: A reporter such as luciferase makes a cellular process visible.

Assay [1] relates to interferon-stimulated responsive elements (ISRE). Description: Activation of ISRE promoter elements in HEK-ISREluc cells by conditioned media from PBMC. To be noted: Homo sapiens, compound concentration applied to PBMCs, supernatant transferred to HEK-ISREluc cells, 24 hours, read-out: HEK-ISRE luc (LEC). How it is done:
The potential of compounds to induce IFN-I was also evaluated by measuring the activation of interferon-stimulated responsive elements (ISRE) by conditioned media from PBMC. The ISRE element of sequence GAAACTGAAACT (SEQ ID: 1) is highly responsive to the STAT1-STAT2-IRF9 transcription factor, activated upon binding of IFN-I to their receptor IFNAR (Clontech, PT3372-5W). The plasmid pISRE-Luc from Clontech (ref. 631913) contains 5 copies of this ISRE element, followed by the firefly luciferase ORF. A HEK293 cell line stably transfected with pISRE-Luc (HEK-ISREluc) was established to profile the conditioned PBMC cell culture media.
Briefly, PBMCs were prepared from buffy coats of at least two donors using a standard Ficoll centrifugation protocol. Isolated PBMCs were resuspended in RPMI medium supplemented with 10% human AB serum and 2×10^5 cells/well were dispensed into 384-well plates containing compounds (70 μL total volume). After overnight incubation, 10 μL of supernatant was transferred to 384-well plates containing 5×10^3 HEK-ISREluc cells/well in 30 μL (plated the day before). Following 24 hours of incubation, activation of the ISRE elements was measured by assaying luciferase activity using 40 μL/well Steady Lite Plus substrate (Perkin Elmer) and measured with ViewLux ultraHTS microplate imager (Perkin Elmer). The stimulating activity of each compound on the HEK-ISREluc cells was reported as LEC value, defined as the compound concentration applied to the PBMCs resulting in a luciferase activity at least two fold above the standard deviation of the assay. The LEC in turn indicates the degree of ISRE activation on transfer of a defined amount of PBMC culture medium. Recombinant interferon α-2a (Roferon-A) was used as a standard control compound.

Another assay addresses T2, human TLR7 (Homo sapiens, UniProt Q9NYK1).
T2 construct: expressed in transfected cells; host or cells: HEK293
T2 sequence (Q9NYK1 27-1049): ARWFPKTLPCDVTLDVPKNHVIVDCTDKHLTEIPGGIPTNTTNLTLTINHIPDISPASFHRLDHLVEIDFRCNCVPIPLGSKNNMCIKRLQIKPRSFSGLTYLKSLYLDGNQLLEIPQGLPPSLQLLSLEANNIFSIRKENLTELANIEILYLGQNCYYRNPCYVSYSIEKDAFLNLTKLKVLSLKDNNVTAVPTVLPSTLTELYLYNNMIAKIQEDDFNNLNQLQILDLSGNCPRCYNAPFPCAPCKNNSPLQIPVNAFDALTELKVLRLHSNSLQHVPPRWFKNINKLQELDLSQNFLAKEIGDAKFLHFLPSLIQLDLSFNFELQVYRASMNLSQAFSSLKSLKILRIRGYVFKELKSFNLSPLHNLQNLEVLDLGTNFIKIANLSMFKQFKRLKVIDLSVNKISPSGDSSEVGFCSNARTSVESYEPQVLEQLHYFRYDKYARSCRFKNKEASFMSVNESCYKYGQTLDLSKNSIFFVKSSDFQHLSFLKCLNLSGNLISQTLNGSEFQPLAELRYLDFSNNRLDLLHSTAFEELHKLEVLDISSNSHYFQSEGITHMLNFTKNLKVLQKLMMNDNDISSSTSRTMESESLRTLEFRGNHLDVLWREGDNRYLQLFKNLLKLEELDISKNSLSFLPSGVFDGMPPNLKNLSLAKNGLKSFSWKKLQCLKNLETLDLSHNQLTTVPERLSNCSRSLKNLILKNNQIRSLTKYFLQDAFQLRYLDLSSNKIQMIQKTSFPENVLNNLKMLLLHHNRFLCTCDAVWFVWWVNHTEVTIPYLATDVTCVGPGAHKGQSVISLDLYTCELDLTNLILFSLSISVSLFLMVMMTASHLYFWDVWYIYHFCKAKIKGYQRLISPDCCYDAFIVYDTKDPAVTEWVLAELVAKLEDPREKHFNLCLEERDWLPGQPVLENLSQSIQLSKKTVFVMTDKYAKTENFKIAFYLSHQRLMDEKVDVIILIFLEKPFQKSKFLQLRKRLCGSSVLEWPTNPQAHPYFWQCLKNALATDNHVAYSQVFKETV
Put plainly: TLR7 cellular NFκB-luc reporter assay in transiently transfected HEK293 cells. To be noted: lowest effective concentration, 6 hours incubation. How it is done:
as §1, §2

For the compound `C[C@@H](Nc1nc(N)nc2cc(C(=O)N3CCCC3)ccc12)c1ccccn1` (single isomer, unassigned) [Compound 28], the “Human TLR 8 (LEC)” value on human TLR8 is more than 25 µM. Besides, the minimal effective concentration in assay [1] turned out to be 1.57 µM. The “Human TLR 7 (LEC)” value on human TLR7 worked out at 2.24 µM.
On the same counts, the results for `Cc1cc(CNc2nc(N)nc3cccc(F)c23)no1` [Compound 11] are 3.09 µM, 0.082 µM and 0.45 µM.
The like results for `COc1cccc2nc(N)nc(NCc3cc(C)on3)c12` [Compound 12] were, in that order, 1.94 µM, 0.036 µM and 0.047 µM.
The like results for `Cc1cc(CNc2nc(N)nc3cc(F)ccc23)no1` [Compound 13] were, in that order, 5.22 µM, 0.12 µM and 0.46 µM.
As for `Cc1cc(CNc2nc(N)nc3c(F)cccc23)no1` [Compound 14], the “Human TLR 8 (LEC)” value on human TLR8 was more than 25 µM. In addition, in assay [1], the minimal effective concentration came to 0.13 µM. Besides, on human TLR7, the “Human TLR 7 (LEC)” value came to 0.65 µM.
As for `COc1cccc2nc(N)nc(N[C@@H](C)[C@H](O)c3ccccc3)c12` [Compound 15], on human TLR8, the “Human TLR 8 (LEC)” value was more than 25 µM. The minimal effective concentration in assay [1] came to 0.56 µM. Also, the “Human TLR 7 (LEC)” value at human TLR7 was determined as 0.61 µM.
The like results for `Nc1nc(N[C@@H](CO)[C@@H](O)c2ccccc2)c2ccccc2n1` [Compound 17] were, in that order, 5.51 µM, 0.16 µM and 0.83 µM.
Turning to `Cc1cc(CNc2nc(N)nc3cccc(C)c23)no1` [Compound 19], at human TLR8, the “Human TLR 8 (LEC)” value is 1.74 µM. Moreover, the minimal effective concentration in assay [1] was found to be 0.051 µM. Further, the “Human TLR 7 (LEC)” value on human TLR7 was 0.11 µM.
Turning to `CNC(=O)c1ccc2c(NC(C)c3ccccn3)nc(N)nc2c1` (stereo not drawn) [Compound 22], the “Human TLR 8 (LEC)” value at human TLR8 was more than 25 µM. For the same compound, the minimal effective concentration in assay [1] was determined as 2.2 µM. In addition, the “Human TLR 7 (LEC)” value at human TLR7 worked out at 14.7 µM.
On the same counts, the results for `CC(Nc1nc(N)nc2cc(C(=O)N(C)C)ccc12)c1ccccn1` (stereo not drawn) [Compound 23] are more than 25 µM, 1.62 µM and 6.67 µM.
As for `CC(Nc1nc(N)nc2cc(C(=O)N(C)C(C)C)ccc12)c1ccccn1` (stereo not drawn) [Compound 24], at human TLR8, the “Human TLR 8 (LEC)” value was found to be 11.0 µM. The minimal effective concentration in assay [1] came out at 1.75 µM. On human TLR7, the “Human TLR 7 (LEC)” value was found to be 14.3 µM.
The like results for `Cc1cc(CNc2nc(N)nc3cccc(CO)c23)no1` [Compound 30] were, in that order, 9.0 µM, 0.14 µM and 0.63 µM.
The like results for `COc1ccc(F)c2nc(N)nc(NCc3cc(C)on3)c12` [Compound 31] were, in that order, more than 25 µM, 0.46 µM and 0.74 µM.
